Test results as given in PMC12520537, “A Multi‐Property Optimizing Generative Adversarial Network for de novo Antimicrobial Peptide Design” (Advanced Science, 2025).
Read-outs that look alike come from different tables or passages of the source. Ends that are not written are not given here.

What was measured:
MC3T3-E1 cells = type: cell-based, mouse
Excerpt: (§1) The assessment of cytotoxicity primarily relies on alterations in cell membrane permeability. To evaluate the cytotoxicity of AMPs, we employed the Cell Counting Kit‐8 (CCK‐8) assay, which is widely recognized as one of the most frequently used methods for assessing cytotoxicity. The CCK‐8 assay utilizes WST‐8 [2‐(2‐Methoxy‐4‐nitrophenyl)‐3‐(4‐nitrophenyl)‐5‐(2,4‐disulfophenyl)‐2H‐tetrazolium Sodium Salt] for rapid detection based on the principle that intracellular dehydrogenase‐mediated biological reduction of WST‐8 generates an orange formazan dye. This dye can dissolve in the medium, and its quantity is directly proportional to the number of viable cells. For the cytotoxicity test, 2 000 MC3T3‐E1 cells or CH3 cells were seeded into each well of 96‐well plates and cultured in DMEM medium containing 10% FBS and 1% penicillin‐streptomycin at 37 °C and 5% CO2overnight. Then the culture medium was removed, and the AMPs at the various concentrations in the media were added to each well. The cells were further incubated for 48 h, followed by the addition of […] of CCK‐8 and subsequent incubation for 1 h. The absorbance of the solution was measured at 450 nm by a microplate reader. The cell viability was calculated as follows (A represents absorbance): (11) %Cell viability=Asample−Ablank/Anegative−Ablank×100
The data were plotted as AMP concentration versus the percentage of living cells using GraphPad Prism 8.0.

B. subtilis BNCC109047 = type: cell-based; conditions: BNCC109047, 18 h
Method: (§2) The antimicrobial activity of the synthesized AMPs was evaluated against several strains, including E. coli BL21(DE3), S. aureus BNCC186335, B. subtilis BNCC109047, and drug‐resistant strains such as E coli XJ13000957, E. coli XJ13022488, E. coli XJ19025100, E. coli XJ22006301, and MRSA ATCC43300. All strains are stored at ‐80°C and, before testing, were transferred into fresh Mueller‐Hinton Medium and incubated for 24 h at 37°C. Fresh cultures were used for the antimicrobial assays. The MIC values were determined using the broth microdilution method according to the Clinical and Laboratory Standards Institute (CLSI) protocol. Initial bacterial inoculums (5× 10^5 colony forming units (CFU)/mL) in Mueller‐Hinton Broth were exposed to varying concentrations of the compounds (0.5‐512 µg/mL) and incubated for 18 h at 37°C. The experiments are conducted on 96‐well microtiter plates with a final volume of 100 µL. The MIC was defined as the lowest concentration of the compound that inhibits visible bacterial growth. Additionally, the MBC was evaluated. After determining the MIC, samples from the MIC well and two higher concentrations are plated on agar plates. The MBC was recorded as the lowest concentration at which no visible bacterial colonies were observed. All experiments were performed in triplicate, with positive controls (ensuring proper bacterial growth) and negative controls (ensuring sterility) included.

E. coli BL21(DE3) = type: cell-based; conditions: BL21, 18 h
Method: as §2

S. aureus BNCC186335 = type: cell-based; conditions: BNCC186335, 18 h
Method: as §2

human red blood cells = type: cell-based; conditions: 3 h
Method: Anticoagulant whole blood was diluted with PBS at a ratio of 1:1 and subsequently centrifuged at 1500×g for 10 minutes. The supernatant and white blood cell layer were discarded, while the red blood cells were washed three times with PBS until the supernatant became colorless and transparent. A 2% red blood cell suspension was then prepared using PBS. For the positive control, 0.2 mL of 1% Triton X‐100 was mixed with 0.8 mL of the red blood cell suspension. The negative control consisted of 0.2 mL of PBS combined with 0.8 mL of the red blood cell suspension. In the experimental group, 0.2 mL of MPOP‐03 (prepared at gradient concentrations) was added to 0.8 mL of the red blood cell suspension. Three replicates were prepared for each group. All samples were incubated at 37°C in a constant temperature water bath for 3 hours. Following incubation, the samples were centrifuged at 1500×g for 5 minutes, and the supernatants were carefully aspirated and transferred to new centrifuge tubes. The optical density values of the samples were measured at a wavelength of 524 nm using a microplate reader. The hemolysis ratio was calculated as follows (A represents absorbance): (12) %Hemolysis ratio=Asample−Anegative/Apositive−Anegative×100

[1] = system: bone marrow mesenchymal stem cells CH3; type: cell-based
Excerpt: as §1, with “viability=Asample−Ablank/Anegative−Ablank×100 […]” for “viability=Asample−Ablank/Anegative−Ablank×100”

E. coli XJ19025100 = type: cell-based; conditions: XJ19025100, 18 h
Method: as §2

Sequence	CC50 (MC3T3-E1) (MC3T3-E1 cells) [µg/mL]	MIC B. subtilis (B. subtilis BNCC109047) [µg/mL]	MIC E. coli (E. coli BL21(DE3)) [µg/mL]	MIC S. aureus (S. aureus BNCC186335) [µg/mL]	HC50 (concentration required to induce 50% hemolysis of red blood cells) (human red blood cells) [µg/mL]	CC50 for CH3 [1] [µg/mL]	CC50 for CH3 ([1]; 48 h) [µg/mL]	CC50 for MC3T3-E1 (MC3T3-E1 cells; 48 h) [µg/mL]	MIC against E. coli XJ19025100 (E. coli XJ19025100) [µg/mL]
DPFGIMSKLQQFIRKFYQSLKHLKT [MPOP-01]	24	8	128	4	–	–	–	–	–
IKGIIKTIKKMASHFLHSAS [MPOP-09]	118	8	16	8	–	–	–	–	–
GLFDVIKKIAEMVSNGYHTVKKKF [MPOP-08]	24	4	32	4	–	–	–	–	–
VMKRIGTILSGLHSLLSKIF [MPOP-05]	28	4	32	4	–	–	–	–	–
IGSFKHVFKRITSMAKAIR [MPOP-10]	–	32	256	32	–	–	–	–	–
LHQIKSVIKTAMNVLSGLFSAIKKK [MPOP-02]	15	4	32	4	–	–	–	–	–
GGGGMLKYFKTAIHTIKKIGQKIVN [MPOP-04]	22	4	16	4	–	–	–	–	–
MSKFKHFFNAVKSIFRGLTK [MPOP-03]	85	2	–	–	256	32.47	34.27	84.96	≤ 8
KLFRVVKKMFHSVFSSIHKYFR [MPOP-06]	20	8	32	8	–	–	–	–	–
GIGKFLHSFTKFFSKIMNAIR [MPOP-07]	35	4	–	4	–	–	–	–	–
